# US11434242B2, “Dopamine-b-hydroxylase inhibitors” (BIAL-PORTELA & Cª, S.A., priority 2017, dated 2022)
# Where a name gives a salt, the structure may show the parent alone.
# Molecular target: T1, Dopamine beta hydroxylase (Homo sapiens, UniProt P09172)
# T1 construct: 125 μl of plasma; tissue Instituto Português do Sangue Transplantação; host or cells: human plasma from healthy donors
# T1 sequence (P09172 40-617 limits assumed): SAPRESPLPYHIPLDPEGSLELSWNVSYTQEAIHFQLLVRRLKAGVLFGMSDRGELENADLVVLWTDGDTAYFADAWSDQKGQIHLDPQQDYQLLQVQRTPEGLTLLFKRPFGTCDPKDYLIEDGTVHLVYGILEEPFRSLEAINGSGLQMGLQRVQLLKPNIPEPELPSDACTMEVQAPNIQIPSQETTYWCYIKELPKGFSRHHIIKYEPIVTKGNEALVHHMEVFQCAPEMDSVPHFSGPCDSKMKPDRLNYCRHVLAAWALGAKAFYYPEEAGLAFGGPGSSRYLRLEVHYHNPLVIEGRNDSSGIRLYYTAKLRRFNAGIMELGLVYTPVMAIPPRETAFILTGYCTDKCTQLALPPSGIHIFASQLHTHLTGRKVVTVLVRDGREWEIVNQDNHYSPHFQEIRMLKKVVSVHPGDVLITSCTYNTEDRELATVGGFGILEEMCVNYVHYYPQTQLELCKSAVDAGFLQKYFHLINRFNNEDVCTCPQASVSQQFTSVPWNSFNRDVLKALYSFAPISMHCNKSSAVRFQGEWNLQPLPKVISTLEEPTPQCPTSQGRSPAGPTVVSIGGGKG
# Test: Dopamine beta hydroxylase activity in human plasma
# Format: biochemical
# Conditions: for Plasma (0.1 μM), activity in % of control: inhibitor 0.1 μM; for Plasma (0.01 μM), activity in % of control: inhibitor 0.01 μM
# In short: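 Healthy-donor human plasma pre-incubated 10 min at 37° C with compound at final 10, 100 or 1000 nM in pH 5.0 acetate buffer with ascorbate, fumarate, pargyline, N-ethylmaleimide, catalase and copper sulfate. Tyramine substrate then added for 45 min; octopamine formed was isolated by SCX cartridge, periodate-converted and read at 330 nm; activity given as % control.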
"Plasma (0.1 μM), activity in % of control","Plasma (1 μM), activity in % of control (inhibitor 1 μM)","Plasma (0.01 μM), activity in % of control",Structure (SMILES)
52.7 % of control,8.5 % of control,,"Cl.Fc1ccc(Cl)cc1[C@]12C[C@H]1c1c(CCN3CCOCC3)[nH]c(=S)n1C2 [Example 174, (5aS,6aR)-5a-(5-chloro-2-fluorophenyl)-1-(2-morpholinoethyl)-5,5a,6,6a-tetrahydrocyclopropa[3,4]pyrrolo[1,2-c]imidazole-3(2H)-thione hydrochloride]"
19.7 % of control,,69.9 % of control,"Fc1cc(F)c(F)c([C@H]2Cc3c(CCCN4CCCC4)[nH]c(=S)n3C2)c1F [Example 219, (R)-1-(3-(pyrrolidin-1-yl)propyl)-6-(2,3,5,6-tetrafluorophenyl)-2,5,6,7-tetrahydro-3H-pyrrolo[1,2-c]imidazole-3-thione hydrochloride]"
4.8 % of control,,29.9 % of control,"CN(C(=O)Cc1c2n(c(=S)n1C)C[C@@]1(c3c(F)ccc(Cl)c3F)C[C@@H]21)C1COC1 [Example 403, 2-((5aS,6aR)-5a-(3-chloro-2,6-difluorophenyl)-2-methyl-3-thioxo-2,3,5,5a,6,6a-hexahydrocyclopropa[3,4]pyrrolo[1,2-c]imidazol-1-yl)-N-methyl-N-(oxetan-3-yl)acetamide]"
29.2 % of control,,61.7 % of control,"Cl.Cn1c(CCN[C@@H]2CCOC2)c2n(c1=S)C[C@H](c1c(F)ccc(Br)c1F)C2 [Example 256, (S)-6-(3-bromo-2,6-difluorophenyl)-2-methyl-1-(2-(((R)-tetrahydrofuran-3-yl)amino)ethyl)-2,5,6,7-tetrahydro-3H-pyrrolo[1,2-c]imidazole-3-thione hydrochloride]"
5.6 % of control,,35.9 % of control,"Cn1c(CC(=O)O)c2n(c1=S)C[C@@]1(c3c(F)ccc(Cl)c3F)C[C@@H]21 [Example 231, 2-((5aS,6aR)-5a-(3-chloro-2,6-difluorophenyl)-2-methyl-3-thioxo-2,3,5,5a,6,6a-hexahydrocyclopropa[3,4]pyrrolo[1,2-c]imidazol-1-yl)acetic Acid]"
41.7 % of control,,77.3 % of control,"Fc1ccc(Br)c(F)c1[C@@H]1Cc2c(CCN3CCOCC3)[nH]c(=S)n2C1 [Example 195, (S)-6-(3-bromo-2,6-difluorophenyl)-1-(2-morpholinoethyl)-2,5,6,7-tetrahydro-3H-pyrrolo[1,2-c]imidazole-3-thione]"
26.0 % of control,,82.3 % of control,"F.Fc1ccc(Br)cc1[C@]12C[C@H]1c1c(CCN3CCOCC3)[nH]c(=S)n1C2 [Example 191, (5aS,6aR)-5a-(5-bromo-2-fluorophenyl)-1-(2-morpholinoethyl)-5,5a,6,6a-tetrahydrocyclopropa[3,4]pyrrolo[1,2-c]imidazole-3(2H)-thione hydrofluoride]"
